The term MIC denotes the lowest concentration found to suppress growth.

≈ marks a conversion by molar mass, not a printed value.

What all share (assay type): functional
For assay [1], the system named is Staphylococcus epidermidis. In words: Antibacterial activity against Methicillin-resistant Staphylococcus epidermidis assessed as bacterial growth inhibition.
Assay [2] deals with Staphylococcus aureus. Nature of the assay: Antibacterial activity against Methicillin-resistant Staphylococcus aureus assessed as bacterial growth inhibition.
Assay [3] concerns Staphylococcus epidermidis. Nature of the assay: Antibacterial activity against Methicillin-sensitive Staphylococcus epidermidis assessed as bacterial growth inhibition.
The next assay relates to Enterococcus faecium. Nature of the assay: Antibacterial activity against Enterococcus faecium assessed as inhibition of bacterial growth.
The next assay relates to Enterococcus faecalis. Nature of the assay: Antibacterial activity against Enterococcus faecalis assessed as bacterial growth inhibition.
In assay [4] the test system is Staphylococcus aureus. In words: Antibacterial activity against Methicillin-sensitive Staphylococcus aureus assessed as bacterial growth inhibition.
Another assay relates to Proteus vulgaris. In words: Antibacterial activity against Proteus vulgaris RCMB 004 assessed as diameter of inhibition zone incubated for 24 hrs by well diffusion assay. (A growth-free zone around the sample is the usual read-out of agar diffusion tests.)
Assay [5] concerns Bacillus subtilis. Nature of the assay: Antibacterial activity against Bacillus subtilis RCMB 010069 assessed as diameter of inhibition zone incubated for 24 hrs by well diffusion assay.
Assay [6] deals with Escherichia coli. In words: Antibacterial activity against Escherichia coli RCMB 010052 assessed as diameter of inhibition zone incubated for 24 hrs by well diffusion assay.
The subject of assay [7] is Staphylococcus aureus. Nature of the assay: Antibacterial activity against Staphylococcus aureus assessed as diameter of inhibition zone incubated for 24 hrs by well diffusion assay.
The next assay concerns Geotrichum candidum. In words: Antifungal activity against Geotrichum candidum RCMB 052006 assessed as diameter of inhibition zone incubated for 24 hrs by well diffusion assay.
For the next assay, the system named is Aspergillus flavus. Nature of the assay: Antifungal activity against Aspergillus flavus assessed as diameter of inhibition zone incubated for 24 hrs by well diffusion assay.
The test system of assay [8] is Staphylococcus epidermidis. Nature of the assay: Antibacterial activity against Staphylococcus epidermidis assessed as reduction in microbial growth.
For assay [9], the system named is Bacillus subtilis. Nature of the assay: Antibacterial activity against Bacillus subtilis MTCC 441 assessed as reduction in microbial growth.
The next assay relates to Aspergillus niger. Nature of the assay: Antifungal activity against Aspergillus niger MTCC 8189 assessed as inhibition of fungal growth.
Assay [10] deals with Escherichia coli. In words: Antibacterial activity against Escherichia coli MTCC 16521 assessed as reduction in microbial growth.
The subject of another assay is Candida albicans. Nature of the assay: Antifungal activity against Candida albicans MTCC 227 assessed as inhibition of fungal growth.

In the case of `CO/N=C1/C(=O)N(Cc2cn(CC(=O)N3CCC[C@@H]4CN(c5c(F)cc6c(=O)c(C(=O)O)cn(C7CC7)c6c5OC)C[C@@H]43)nn2)c2ccccc21`, the MIC (in assay [1]; in the assay with Staphylococcus aureus [2]; in assay [3]; with Enterococcus faecium; in the assay with Enterococcus faecalis; in the assay with Staphylococcus aureus [4]) was 0.06 µg/mL (≈ 0.0859 µM) each time.
In the case of `COc1c(N2C[C@H]3CCCN(C(=O)Cn4cc(CN5C(=O)C(=O)c6ccccc65)nn4)[C@H]3C2)c(F)cc2c(=O)c(C(=O)O)cn(C3CC3)c12`, the MIC (in assay [1]; with Staphylococcus aureus [2]; in [3]; in the assay with Enterococcus faecium; in the assay with Enterococcus faecalis; with Staphylococcus aureus [4]) was 0.06 µg/mL (≈ 0.0896 µM) in each case.
On to `Cc1c(C(=O)/C=C/c2ccncc2)nnn1-c1ccc(-n2nnc(C(=O)/C=C/c3ccncc3)c2C)cc1`, for which the “diameter of the inhibition zone (DIZ)” value in the assay on Proteus vulgaris stood at 17.3 mm; in the assay on Bacillus subtilis [5] it was 28.2 mm; in the assay on Escherichia coli [6], 26.3 mm; in the assay on Staphylococcus aureus [7], 19.2 mm; with Geotrichum candidum, 21.3 mm; with Aspergillus flavus it was 18.43 mm.
In the case of `COc1c(N2C[C@H]3CCCN(C(=O)Cn4cc(CN5C(=O)C(=O)c6c(F)cccc65)nn4)[C@H]3C2)c(F)cc2c(=O)c(C(=O)O)cn(C3CC3)c12`, the MIC (in [1]; in the assay with Staphylococcus aureus [2]; in [3]; in the assay on Enterococcus faecium; with Enterococcus faecalis; with Staphylococcus aureus [4]) was 0.06 µg/mL (≈ 0.0873 µM) throughout.
For the compound `CO/N=C1/C(=O)N(Cc2cn(CC(=O)N3CCC[C@@H]4CN(c5c(F)cc6c(=O)c(C(=O)O)cn(C7CC7)c6c5OC)C[C@@H]43)nn2)c2cccc(F)c21`, the MIC (in [1]; with Staphylococcus aureus [2]; in [3]; in the assay on Enterococcus faecium; in the assay on Enterococcus faecalis; in the assay on Staphylococcus aureus [4]) was 0.06 µg/mL (≈ 0.0837 µM) throughout.
In the case of `COc1ccc(NC(=O)NCc2cn(CCCCCCn3cc(CNC(=O)Nc4ccc(OC)cc4)nn3)nn2)cc1`, the MIC in assay [8] amounted to 6 µM; with Bacillus subtilis [9] it was 6 µM; in the assay with Aspergillus niger, 6 µM (≈ 3.46 µg/mL); in the assay on Escherichia coli [10] it was 6 µM; in the assay with Candida albicans, 6 µM (≈ 3.46 µg/mL).
Regarding `CCO/N=C1/C(=O)N(Cc2cn(CC(=O)N3CCC[C@@H]4CN(c5c(F)cc6c(=O)c(C(=O)O)cn(C7CC7)c6c5OC)C[C@@H]43)nn2)c2cc(C)ccc21`, the MIC (in [1]; in the assay on Staphylococcus aureus [2]; in assay [3]; with Enterococcus faecium; in the assay on Enterococcus faecalis; with Staphylococcus aureus [4]) was 0.06 µg/mL (≈ 0.0826 µM) each time.
In the case of `CCO/N=C1/C(=O)N(Cc2cn(CC(=O)N3CCC[C@@H]4CN(c5c(F)cc6c(=O)c(C(=O)O)cn(C7CC7)c6c5OC)C[C@@H]43)nn2)c2cc(F)ccc21`, the MIC (in assay [1]; in the assay with Staphylococcus aureus [2]; in assay [3]; in the assay on Enterococcus faecium; in the assay on Enterococcus faecalis; in the assay with Staphylococcus aureus [4]) was 0.06 µg/mL (≈ 0.0821 µM) each time.
Turning to `Cc1c(C(=O)/C=C/c2cccnc2)nnn1-c1ccc(-n2nnc(C(=O)/C=C/c3cccnc3)c2C)cc1`, the “diameter of the inhibition zone (DIZ)” value in the assay with Proteus vulgaris stood at 17.8 mm; in the assay on Bacillus subtilis [5] it was 29.3 mm; in the assay on Escherichia coli [6], 23.7 mm; in the assay on Staphylococcus aureus [7] it was 17.3 mm; with Geotrichum candidum, 19.3 mm; in the assay on Aspergillus flavus, 18.03 mm.
`COc1c(N2C[C@H]3CCCN(C(=O)Cn4cc(CN5C(=O)C(=O)c6ccc(F)cc65)nn4)[C@H]3C2)c(F)cc2c(=O)c(C(=O)O)cn(C3CC3)c12`: the MIC (in [1]; in the assay with Staphylococcus aureus [2]; in [3]; with Enterococcus faecium; with Enterococcus faecalis; with Staphylococcus aureus [4]) was 0.06 µg/mL (≈ 0.0873 µM) throughout.
As for `CO/N=C1/C(=O)N(Cc2cn(CC(=O)N3CCC[C@@H]4CN(c5c(F)cc6c(=O)c(C(=O)O)cn(C7CC7)c6c5OC)C[C@@H]43)nn2)c2cc(C)ccc21`, the MIC (in assay [1]; with Staphylococcus aureus [2]; in assay [3]; in the assay with Enterococcus faecium; in the assay with Enterococcus faecalis; in the assay on Staphylococcus aureus [4]) was 0.06 µg/mL (≈ 0.0842 µM) in each case.
`CO/N=C1/C(=O)N(Cc2cn(CC(=O)N3CCC[C@@H]4CN(c5c(F)cc6c(=O)c(C(=O)O)cn(C7CC7)c6c5OC)C[C@@H]43)nn2)c2cc(F)ccc21`: the MIC (in [1]; with Staphylococcus aureus [2]; in assay [3]; with Enterococcus faecium; with Enterococcus faecalis; with Staphylococcus aureus [4]) was 0.06 µg/mL (≈ 0.0837 µM) in each case.
Consider `COc1ccc(NC(=O)NCc2cn(Cc3cccc(Cn4cc(CNC(=O)Nc5ccc(OC)cc5)nn4)c3)nn2)cc1`, for which the MIC in assay [8] was found to be 6 µM; in the assay with Bacillus subtilis [9], 6 µM; in the assay on Aspergillus niger, 6 µM (≈ 3.58 µg/mL); in the assay on Escherichia coli [10] it was 6 µM; in the assay on Candida albicans, 6 µM (≈ 3.58 µg/mL).
On to `O=C(NCc1cn(CCCCCCn2cc(CNC(=O)Nc3ccc(Cl)cc3)nn2)nn1)Nc1ccc(Cl)cc1`, for which the MIC was determined as 6 µM in [8]; 6 µM with Bacillus subtilis [9]; 6 µM (≈ 3.51 µg/mL) with Aspergillus niger; 6 µM in the assay with Escherichia coli [10]; 6 µM (≈ 3.51 µg/mL) in the assay with Candida albicans.
Turning to `CCO/N=C1/C(=O)N(Cc2cn(CC(=O)N3CCC[C@@H]4CN(c5c(F)cc6c(=O)c(C(=O)O)cn(C7CC7)c6c5OC)C[C@@H]43)nn2)c2cccc(F)c21`, the MIC (in assay [1]; in the assay with Staphylococcus aureus [2]; in [3]; with Enterococcus faecium; with Enterococcus faecalis; with Staphylococcus aureus [4]) was 0.06 µg/mL (≈ 0.0821 µM) throughout.
Consider `O=C(NCc1cn(Cc2cccc(Cn3cc(CNC(=O)Nc4ccc(Cl)cc4)nn3)c2)nn1)Nc1ccc(Cl)cc1`, for which the MIC in assay [8] came out at 6 µM; with Bacillus subtilis [9] it was 6 µM; in the assay with Aspergillus niger, 6 µM (≈ 3.63 µg/mL); in the assay on Escherichia coli [10] it was 6 µM; in the assay with Candida albicans, 6 µM (≈ 3.63 µg/mL).
`O=C(NCc1cn(CCCCCCn2cc(CNC(=O)Nc3ccc(F)cc3)nn2)nn1)Nc1ccc(F)cc1`: the MIC was found to be 6 µM in assay [8]; 6 µM in the assay with Bacillus subtilis [9]; 6 µM (≈ 3.32 µg/mL) with Aspergillus niger; 6 µM in the assay with Escherichia coli [10]; 6 µM (≈ 3.32 µg/mL) in the assay with Candida albicans.
For the compound `Cc1c(-c2cc(-c3c[nH]c4ccccc34)[nH]n2)nnn1-c1ccc(-n2nnc(-c3cc(-c4c[nH]c5ccccc45)[nH]n3)c2C)cc1`, the “diameter of the inhibition zone (DIZ)” value came to 19.2 mm with Proteus vulgaris; 33.5 mm in the assay with Bacillus subtilis [5]; 28.4 mm with Escherichia coli [6]; 19.3 mm in the assay with Staphylococcus aureus [7]; 23.9 mm in the assay on Geotrichum candidum; 19.5 mm with Aspergillus flavus.
For `COc1c(N2C[C@H]3CCCN(C(=O)Cn4cc(CN5C(=O)C(=O)c6ccc(C)cc65)nn4)[C@H]3C2)c(F)cc2c(=O)c(C(=O)O)cn(C3CC3)c12`, the minimal inhibitory concentration (MIC) (in assay [1]; with Staphylococcus aureus [2]; in assay [3]; in the assay on Enterococcus faecium; in the assay with Enterococcus faecalis; in the assay on Staphylococcus aureus [4]) was 0.06 µg/mL (≈ 0.0878 µM) each time.
On to `Cc1c(C(=O)/C=C/c2c[nH]c3ccccc23)nnn1-c1ccc(-n2nnc(C(=O)/C=C/c3c[nH]c4ccccc34)c2C)cc1`, for which the “diameter of the inhibition zone (DIZ)” value with Proteus vulgaris was determined as 15.4 mm; in the assay on Bacillus subtilis [5], 34.2 mm; with Escherichia coli [6], 25 mm; in the assay on Staphylococcus aureus [7] it was 12 mm; with Geotrichum candidum it was 17.2 mm; in the assay with Aspergillus flavus, 19.2 mm.
With `O=C(NCc1cn(Cc2cccc(Cn3cc(CNC(=O)Nc4ccc(F)cc4)nn3)c2)nn1)Nc1ccc(F)cc1`, the MIC was 6 µM in assay [8]; 6 µM in the assay on Bacillus subtilis [9]; 6 µM (≈ 3.44 µg/mL) with Aspergillus niger; 6 µM in the assay on Escherichia coli [10]; 6 µM (≈ 3.44 µg/mL) in the assay with Candida albicans.
As for `Cc1c(C(=O)/C=C/c2ccccn2)nnn1-c1ccc(-n2nnc(C(=O)/C=C/c3ccccn3)c2C)cc1`, the “diameter of the inhibition zone (DIZ)” value turned out to be 24.37 mm in the assay on Proteus vulgaris; 32.2 mm in the assay on Bacillus subtilis [5]; 31.3 mm in the assay with Escherichia coli [6]; 22.02 mm with Staphylococcus aureus [7]; 24 mm with Geotrichum candidum; 22 mm in the assay on Aspergillus flavus.
As to `CCO/N=C1/C(=O)N(Cc2cn(CC(=O)N3CCC[C@@H]4CN(c5c(F)cc6c(=O)c(C(=O)O)cn(C7CC7)c6c5OC)C[C@@H]43)nn2)c2ccccc21`, the MIC (in [1]; in the assay on Staphylococcus aureus [2]; in assay [3]; in the assay with Enterococcus faecium; in the assay with Enterococcus faecalis; in the assay with Staphylococcus aureus [4]) was 0.06 µg/mL (≈ 0.0842 µM) each time.
Turning to `COc1c(N2C[C@@H]3CCCN[C@@H]3C2)c(F)cc2c(=O)c(C(=O)O)cn(C3CC3)c12` [MOXIFLOXACIN], the MIC (in assay [1]; in the assay on Staphylococcus aureus [2]; in assay [3]; in the assay with Enterococcus faecium; in the assay with Enterococcus faecalis; in the assay with Staphylococcus aureus [4]) was 0.06 µg/mL (≈ 0.149 µM) throughout.

(Values after ChEMBL document CHEMBL5634077, “Recent advances in 1,2,3- and 1,2,4-triazole hybrids as antimicrobials and their SAR: A critical review” (2023).)
